Measurements as given in patent publication US7968577B2 (Bristol-Myers Squibb Company, priority 2006, dated 2011).

Tested on: AP-1 induced transcriptional activity
Experiment: Cellular Transrepressional Assay: AP-1 luciferase reporter in PMA-activated A549 cells
Type: cell-based
Details: for Emax: A549, 7 h, read-out: AP-1 Max % inh (Cellular Transrepression Assay)
Experimental: Cellular Transrepressional Assay
To measure the ability of test molecules to inhibit AP-1 induced transcriptional activity we utilized an A549 cell which was stably transfected with a plasmid containing 7× AP-1 DNA binding sites (pAP-1-Luc plasmid, Stratagene Co. La Jolla, Calif.) followed by the gene for luciferase. Cells were activated with 10 ng/ml of […] (PMA) plus or minus test molecules for 7 hours. After 7 hours a luciferase reagent was added to measure luciferase enzymatic activity in the cell. After a 10 minute incubation of luciferase reagent with cells, luminescence was measured in a TopCount luminescence counter. Repression of AP-1 activity was calculated as the percentage decrease in the signal induced by PMA alone. Test molecules were analyzed in the concentration range from 0.1 nM to 40 μM. EC50s were determined by using standard curve fitting methods such as Excel fit (Microsoft Co.).

[1] = Homo sapiens, maximum inhibition, Cellular Transrepression Assay
[2] = Homo sapiens, A549, Cellular Transrepression Assay

SMILES	EC50 (Cellular Transrepression Assay) [nM]	Emax [1] [%]	EC50 [2] [nM]	AP-1 Max % inh (Cellular Transrepression Assay) (maximum inhibition, Cellular Transrepression Assay) [%]
CC(C)(C(=O)Nc1nncs1)C(c1ccccc1)c1ccc(N2CCOCC2)cc1 (centres unmarked) [Example 225, 2,2-dimethyl-3-(4-(4-morpholinyl)phenyl)-3-phenyl-N-1,3,4-thiadiazol-2-ylpropanamide]	114	34.3		
COc1ccc(C(c2ccc(OC)cc2)C(C)(C)C(=O)Nc2nc(C(C)(C)C)cs2)cc1 [Example 74, N-(4-(1,1-dimethylethyl)-1,3-thiazol-2-yl)-2,2-dimethyl-3,3-bis(4-(methyloxy)phenyl)propanamide]		28.1		
CC(C)(C(=O)Nc1nccs1)C(c1ccccc1)c1ccc(N2CCOCC2)cc1 (centres unmarked) [Example 224, 2,2-dimethyl-3-(4-(4-morpholinyl)phenyl)-3-phenyl-N-1,3-thiazol-2-ylpropanamide]		33.8	161	
CC(C)(C(=O)Nc1nccs1)C(c1ccccc1)c1ccc(O)c(F)c1 (centres unmarked) [Example 347, 3-(3-fluoro-4-hydroxyphenyl)-2,2-dimethyl-3-phenyl-N-1,3-thiazol-2-ylpropanamide]	10.8			55.26
COc1ccc(C(c2ccccc2)C(C)(C)C(=O)Nc2ncc(C)s2)cc1 (centres unmarked) [Example 105, 2,2-dimethyl-3-(4-(methyloxy)phenyl)-N-(5-methyl-1,3-thiazol-2-yl)-3-phenylpropanamide]		22.1		
CC(C)(C(=O)Nc1nc(Cc2ccc(-c3ccncc3)cc2)cs1)C(c1ccccc1)c1ccccc1 [Example 299, 2,2-dimethyl-3,3-diphenyl-N-(4-((4-(4-pyridinyl)phenyl)methyl)-1,3-thiazol-2-yl)propanamide]		69.3	13.3	
CC(C)CC(c1ccc(-c2ccc(OC(C)C)cc2)cc1)C(C)(C)C(=O)Nc1nncs1 (centres unmarked) [Example 395, 2,2,5-trimethyl-3-(4′-((1-methylethyl)oxy)-4-biphenylyl)-N-1,3,4-thiadiazol-2-ylhexanamide]		32.5	13.4	
Cc1cnc(NC(=O)C(C)(C)C(c2ccccc2)c2cccc(O)c2)s1 (centres unmarked) [Example 199, 3-(3-hydroxyphenyl)-2,2-dimethyl-N-(5-methyl-1,3-thiazol-2-yl)-3-phenylpropanamide]		31.1		
CC(C)(C)NC(=O)c1ccc(-c2ccc(C(c3ccccc3)C(C)(C)C(=O)Nc3nncs3)cc2)cc1 (centres unmarked) [Example 424, N-tert-butyl-4′-(2,2-dimethyl-3-oxo-1-phenyl-3-(1,3,4-thiadiazol-2-ylamino)propyl)-4-biphenylcarboxamide]		26.4	14.5	
COc1cccc(C(c2ccccc2)C(C)(C)C(=O)Nc2nc3ccccc3s2)c1 (centres unmarked) [Example 101, N-1,3-benzothiazol-2-yl-2,2-dimethyl-3-(3-(methyloxy)phenyl)-3-phenylpropanamide]		26.9		
CC(C)(C(=O)Nc1nccs1)[C@@H](c1ccccc1)c1ccc(O)cc1 [Example 325, (3S)-3-(4-hydroxyphenyl)-2,2-dimethyl-3-phenyl-N-1,3-thiazol-2-ylpropanamide]		57.8	53.9	
COc1ccc([C@H](c2ccccc2)C(C)(C)C(=O)Nc2nc(Cc3ccc(-c4ccncc4)cc3)cs2)cc1 (stereo in doubt) [Example 291, 2,2-dimethyl-3-(4-(methyloxy)phenyl)-3-phenyl-N-(4-((4-(4-pyridinyl)phenyl)methyl)-1,3-thiazol-2-yl)propanamide]		74.3	10.3	
CCc1ccc(-c2ccc(C(c3ccccc3)C(C)(C)C(=O)Nc3nncs3)cc2)cc1 (centres unmarked) [Example 407, 3-(4′-ethyl-4-biphenylyl)-2,2-dimethyl-3-phenyl-N-1,3,4-thiadiazol-2-ylpropanamide]		37.5	14.9	
COc1cccc(C(c2ccccc2)C(C)(C)C(=O)Nc2nccs2)c1 (centres unmarked) [Example 91, 2,2-dimethyl-3-(3-(methyloxy)phenyl)-3-phenyl-N-1,3-thiazol-2-ylpropanamide]		23.2		
CC(C)CC(c1ccc(-c2ccc(OC(C)C)cc2)cc1)C(C)(C)C(=O)Nc1nccs1 (centres unmarked) [Example 400, 2,2,5-trimethyl-3-(4′-((1-methylethyl)oxy)-4-biphenylyl)-N-1,3-thiazol-2-ylhexanamide]		46.1	267	
COc1ccc(Cc2csc(NC(=O)C(C)(C)C(c3ccccc3)c3cccc(OC)c3)n2)cc1 (centres unmarked) [Example 298, 2,2-dimethyl-3-(3-(methyloxy)phenyl)-N-(4-((4-(methyloxy)phenyl)methyl)-1,3-thiazol-2-yl)-3-phenylpropanamide]		78.7	417	
CC(C)(C(=O)Nc1nc(CCc2ccccc2)cs1)C(c1ccccc1)c1cccc(O)c1 (centres unmarked) [Example 203, 3-(3-hydroxyphenyl)-2,2-dimethyl-3-phenyl-N-(4-(2-phenylethyl)-1,3-thiazol-2-yl)propanamide]		35.1		

SMILES	EC50 (Cellular Transrepression Assay) [nM]	Emax [1] [%]	EC50 [2] [nM]	AP-1 Max % inh (Cellular Transrepression Assay) (maximum inhibition, Cellular Transrepression Assay) [%]
CCOC(=O)c1sc(NC(=O)C(C)(C)C(c2ccccc2)c2cccc(OC)c2)nc1C (centres unmarked) [Example 100, ethyl 2-((2,2-dimethyl-3-(3-(methyloxy)phenyl)-3-phenylpropanoyl)amino)-4-methyl-1,3-thiazole-5-carboxylate]		30		
CC(C)(C(=O)Nc1nncs1)C(c1ccc(N2CCOCC2)cc1)c1cccc(F)c1 (single isomer, unassigned) [Example 255, 3-(3-fluroophenyl)-2,2-dimethyl-3-(4-(4-morpholinyl)phenyl)-N-1,3,4-thiadiazol-2-ylpropanamide]		43	10.2	
CC(C)(C(=O)Nc1nncs1)C(c1ccccc1)c1ccc(N2CCCCC2)cc1 (centres unmarked) [Example 236, 2,2-dimethyl-3-phenyl-3-(4-(1-piperidinyl)phenyl)-N-1,3,4-thiadiazol-2-ylpropanamide]		38.5	151	
CC(C)(C(=O)Nc1nccs1)[C@@H](c1ccccc1)c1ccc(OC(=O)C2CCCO2)cc1 (stereo partly drawn) [Example 366, 4-((1S)-2,2-dimethyl-3-oxo-1-phenyl-3-(1,3-thiazol-2-ylamino)propyl)phenyl tetrahydro-2-furancarboxylate]		32.6	20	
COc1ccccc1C(c1ccccc1)C(C)(C)C(=O)Nc1nc(-c2ccccc2)cs1 (centres unmarked) [Example 84, 2,2-dimethyl-3-(2-(methyloxy)phenyl)-3-phenyl-N-(4-phenyl-1,3-thiazol-2-yl)propanamide]		30.8		
Cc1ccc(C(c2ccc(N3CCOCC3)cc2)C(C)(C)C(=O)Nc2nccs2)cc1 (centres unmarked) [Example 227, 2,2-dimethyl-3-(4-methylphenyl)-3-(4-(4-morpholinyl)phenyl)-N-1,3-thiazol-2-ylpropanamide]		43.7	666	
CC(C)(C(=O)Nc1nncs1)C(c1ccccc1)c1ccc(-c2ccc(-c3ccccc3)cc2)cc1 (centres unmarked) [Example 404, 2,2-dimethyl-3-phenyl-3-(1,1′:4′,1″- terphenyl-4-yl)-N-1,3,4-thiadiazol-2-ylpropanamide]		21.9	9.57	
COc1ccc(-c2ccc(C(c3ccccc3)C(C)(C)C(=O)Nc3nncs3)cc2)cc1 (centres unmarked) [Example 378, 2,2-dimethyl-3-(4′-(methyloxy)-4-biphenylyl)-3-phenyl-N-1,3,4-thiadiazol-2-ylpropanamide]		26.2	894	
Cc1cccc(-c2csc(NC(=O)C(C)(C)C(c3ccccc3)c3ccccc3)n2)c1 [Example 170, 2,2-dimethyl-N-(4-(3-methylphenyl)-1,3-thiazol-2-yl)-3,3-diphenylpropanamide]		27		
CC(C)(C(=O)Nc1nncs1)C(c1ccccc1)c1ccc(-c2ccc(C(=O)N3CCOCC3)cc2)cc1 (centres unmarked) [Example 401, 2,2-dimethyl-3-(4′-(4-morpholinylcarbonyl)-4-biphenylyl)-3-phenyl-N-1,3,4-thiadiazol-2-ylpropanamide]		47	13.3	
Cc1ccc(-c2csc(NC(=O)C(C)(C)C(c3ccccc3)c3ccccc3)n2)c2ccccc12 [Example 164, 2,2-dimethyl-N-(4-(4-methyl-1-naphthalenyl)-1,3-thiazol-2-yl)-3,3-diphenylpropanamide]		75.2	810	
COc1ccc(Cc2csc(NC(=O)C(C)(C)C(c3ccccc3)c3ccccc3)n2)cc1 [Example 297, 2,2-dimethyl-N-(4-((4-(methyloxy)phenyl)methyl)-1,3-thiazol-2-yl)-3,3-diphenylpropanamide]		77.3	262	
CC(C)(C(=O)Nc1nccs1)C(c1ccc(O)cc1)c1ccc(O)cc1 [Example 186, 3,3-bis(4-hydroxyphenyl)-2,2-dimethyl-N-1,3-thiazol-2-ylpropanamide]		20.5		
CC(C)(C(=O)Nc1nc(-c2ccc(F)c3ccccc23)cs1)C(c1ccccc1)c1ccccc1 [Example 183, N-(4-(4-fluoro-1-naphthalenyl)-1,3-thiazol-2-yl)-2,2-dimethyl-3,3-diphenylpropanamide]		65.3		
CC(C)(C(=O)Nc1nncs1)[C@H](c1ccccc1)c1ccc(O)cc1 [Example 340, (3R)-3-(4-hydroxyphenyl)-2,2-dimethyl-3-phenyl-N-1,3,4-thiadiazol-2-ylpropanamide]		57	90.3	
CC(C)(C(=O)Nc1nc(Cc2ccc(-c3ccncc3)cc2)cs1)C(c1ccccc1)c1ccc(Cl)cc1 (centres unmarked) [Example 301, 3-(4-chlorophenyl)-2,2-dimethyl-3-phenyl-N-(4-((4-(4-pyridinyl)phenyl)methyl)-1,3-thiazol-2-yl)propanamide]		73.7	10.2	
COc1cccc2sc(NC(=O)C(C)(C)C(c3ccccc3)c3ccccc3)nc12 [Example 46, 2,2-dimethyl-N-(4-(methyloxy)-1,3-benzothiazol-2-yl)-3,3-diphenylpropanamide]		22.9		
